Assay results published in ChEMBL document CHEMBL4613246, “Antimycobacterial Rufomycin Analogues from Streptomyces atratus Strain MJM3502” (J Nat Prod, 2020).
In brackets after ≈: the same amount, converted by molar mass. Starred links: 1 amine or outer side, 2 acyl side, 3 side chain; linkers in the order of their positions; H or OH if unused. Non-standard residues stand in square brackets, D forms with d. Residues, ends and D or L forms follow the SMILES beside them. Trp(1-CMe2(2S-oxiranyl)) = CC(C)([C@H]1CO1)n1cc(C[C@H](N)C(=O)O)c2ccccc21; Trp(1-(1,1-Me2-allyl)) = C=CC(C)(C)n1cc(C[C@H](N)C(=O)O)c2ccccc21; X3 = CC(C)([C@H](O)CCl)n1cc(C[C@H](N[*:1])C(=O)[*:2])c2ccccc21; Tyr(3-NO2) = N[C@@H](Cc1ccc(O)c([N+](=O)[O-])c1)C(=O)O; NMeLeu(5-OH,4R) = CN[C@@H](C[C@@H](C)CO)C(=O)O; X1 = COC(OC)C(C)C[C@@H](C(=O)[*:2])N(C)[*:1]; X2 = C[C@H](CO)C[C@@H](C(=O)[*:2])N(C)[*:1]; Gly(E-crotyl) = C/C=C/C[C@H](N)C(=O)O; NMeL = CN[C@@H](CC(C)C)C(=O)O

How the values were obtained:
[1] = tested on: Mycobacterium tuberculosis; experiment: Antimycobacterial activity against Mycobacterium tuberculosis H37Rv assessed as reduction in microbial growth after 7 days by alamar blue assay; type: functional; settings: 168 h
[2] = tested on: Mycobacterium tuberculosis; experiment: Antimycobacterial activity against nonreplicating Mycobacterium tuberculosis H37Rv under hypoxic condition by fluorescence based assay; type: functional
[3] = target: T1, ATP-dependent Clp protease ATP-binding subunit ClpC1 (Mycobacterium tuberculosis, UniProt P9WPC9); experiment: Binding affinity to recombinant Mycobacterium tuberculosis H37Rv N-terminal His6-tagged ClpC1 (1 to 145 residues) expressed in Escherichia coli BL21 cells by surface plasmon resonance analysis
[4] = target: T1, ATP-dependent Clp protease ATP-binding subunit ClpC1; experiment: Binding affinity to recombinant full length Mycobacterium tuberculosis H37Rv ClpC1 (1 to 842 residues) expressed in Escherichia coli BL21 cells by surface plasmon resonance analysis
[5] = tested on: Mycobacteroides abscessus; experiment: Antimycobacterial activity against Mycobacterium abscessus ATCC 19977 assessed as reduction in microbial growth after 7 days by alamar blue assay; type: functional; settings: ATCC 19977, 168 h
[6] = tested on: Vero; experiment: cells; settings: Chlorocebus sabaeus
Description: Cytotoxicity against African green monkey Vero cells

T1 sequence (P9WPC9 whole entry, the tested form may be a part): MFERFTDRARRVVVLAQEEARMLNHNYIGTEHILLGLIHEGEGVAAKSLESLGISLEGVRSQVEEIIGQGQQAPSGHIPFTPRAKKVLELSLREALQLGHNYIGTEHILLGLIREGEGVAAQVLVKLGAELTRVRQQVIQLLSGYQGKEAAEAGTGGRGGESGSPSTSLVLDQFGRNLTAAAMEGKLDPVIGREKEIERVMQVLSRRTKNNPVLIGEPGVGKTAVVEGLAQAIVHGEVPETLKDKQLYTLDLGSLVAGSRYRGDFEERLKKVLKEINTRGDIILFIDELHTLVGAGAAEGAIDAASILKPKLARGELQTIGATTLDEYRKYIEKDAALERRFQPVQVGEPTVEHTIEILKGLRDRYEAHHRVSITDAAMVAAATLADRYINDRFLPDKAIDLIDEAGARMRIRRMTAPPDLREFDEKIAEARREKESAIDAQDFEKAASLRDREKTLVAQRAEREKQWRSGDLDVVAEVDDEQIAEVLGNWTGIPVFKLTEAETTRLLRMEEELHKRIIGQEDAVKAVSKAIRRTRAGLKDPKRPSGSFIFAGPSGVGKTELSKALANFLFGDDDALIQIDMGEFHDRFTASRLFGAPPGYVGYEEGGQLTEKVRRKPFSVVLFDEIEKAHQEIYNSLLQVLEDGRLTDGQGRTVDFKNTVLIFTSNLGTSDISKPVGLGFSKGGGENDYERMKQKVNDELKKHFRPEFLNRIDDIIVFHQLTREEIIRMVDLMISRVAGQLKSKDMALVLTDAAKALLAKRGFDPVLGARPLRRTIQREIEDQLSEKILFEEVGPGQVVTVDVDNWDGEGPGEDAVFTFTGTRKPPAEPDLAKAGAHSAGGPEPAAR

SMILES | MIC [1] [µM] | MIC [2] [µM] | Kd [3] [µM] | Kd [4] [µM] | MIC [5] [µM] | IC50 [6] [µM]
C=CC(C)(C)n1cc(C[C@@H]2NC(=O)[C@H](CC(C)C)N(C)C2=O)c2ccccc21 | > 10 | 4 to 10 (≈ 1.53 to 3.82 µg/mL) | – | – | – | –
C/C=C/C[C@@H]1NC(=O)[C@H](CC(C)C)N2C(=O)[C@H](C[C@](C)(O)[C@H]2O)N(C)C(=O)[C@H](C)NC(=O)[C@H](Cc2ccc(O)c([N+](=O)[O-])c2)NC(=O)[C@H](CC(C)C)N(C)C(=O)[C@H](Cc2cn(C(C)(C)[C@H]3CO3)c3ccccc23)NC1=O | 0.03 | 4 to 10 (≈ 4.23 to 10.6 µg/mL) | 0.06 | 0.05 | – | –
C/C=C/C[C@@H]1NC(=O)[C@H](CC(C)C)N2C(=O)[C@H](CC(C)[C@H]2O)N(C)C(=O)[C@H](C)NC(=O)[C@H](Cc2ccc(O)c([N+](=O)[O-])c2)NC(=O)[C@H](CC(C)C)N(C)C(=O)[C@H](Cc2cn(C(C)(C)[C@H]3CO3)c3ccccc23)NC1=O (stereo not given in full) | 0.02 | 4 to 10 (≈ 4.17 to 10.4 µg/mL) | 0.06 | 0.06 | 0.29 | –
C/C=C/C[C@@H]1NC(=O)[C@H](CC(C)C)N2C(=O)[C@H](C[C@@H](C)[C@H]2O)N(C)C(=O)[C@H](C)NC(=O)[C@H](Cc2ccc(O)c([N+](=O)[O-])c2)NC(=O)[C@H](CC(C)C)N(C)C(=O)[C@H](Cc2cn(C(C)(C)[C@H](O)CO)c3ccccc23)NC1=O | 0.1 | 4 to 10 (≈ 4.24 to 10.6 µg/mL) | 0.3 | 0.28 | – | –
C=CC(C)(C)n1cc(C[C@@H]2NC(=O)[C@H](C/C=C/C)NC(=O)[C@H](CC(C)C)NC(=O)[C@H](CC(C)C)N(C)C(=O)[C@H](C)NC(=O)[C@H](Cc3ccc(O)cc3)NC(=O)[C@H](CC(C)C)N(C)C2=O)c2ccccc21 (HELM PEPTIDE1{A.[meL].L.[C/C=C/C[C@H](N[*:1])C(=O)[*:2]].[C=CC(C)(C)n1cc(C[C@H](N[*:1])C(=O)[*:2])c2ccccc21].[meL].Y}$PEPTIDE1,PEPTIDE1,1:R1-7:R2$$$V2.0) | > 10 | 4 to 10 (≈ 3.87 to 9.67 µg/mL) | 1.2 | 5.7 | – | –
C=CC(C)(C)n1cc(C[C@@H]2NC(=O)[C@H](C/C=C/C)NC(=O)[C@H](CC(C)C)NC(=O)[C@H](CC(C)C)N(C)C(=O)[C@H](C)NC(=O)[C@H](Cc3ccc(O)c([N+](=O)[O-])c3)NC(=O)[C@H](CC(C)C)N(C)C2=O)c2ccccc21 (cyclo(A[NMeL]L[Gly(E-crotyl)][Trp(1-(1,1-Me2-allyl))][NMeL][Tyr(3-NO2)])) | 1.7 | 4 to 10 (≈ 4.05 to 10.1 µg/mL) | 1.2 | 3.2 | – | –
C/C=C/C[C@@H]1NC(=O)[C@H](CC(C)C)NC(=O)[C@H](CC(C)C)N(C)C(=O)[C@H](C)NC(=O)[C@H](Cc2ccc(O)c([N+](=O)[O-])c2)NC(=O)[C@H](CC(C)C)NC(=O)[C@H](Cc2cn(C(C)(C)[C@H]3CO3)c3ccccc23)NC1=O (cyclo(A[NMeL]L[Gly(E-crotyl)][Trp(1-CMe2(2S-oxiranyl))]L[Tyr(3-NO2)])) | 0.57 | 4 to 10 (≈ 4.06 to 10.1 µg/mL) | – | 1.5 | – | –
C/C=C/C[C@@H]1NC(=O)[C@H](CC(C)C)NC(=O)[C@H](CC(C)C)N(C)C(=O)[C@H](C)NC(=O)[C@H](Cc2ccc(O)c([N+](=O)[O-])c2)NC(=O)[C@H](CC(C)C)N(C)C(=O)[C@H](Cc2cn(C(C)(C)[C@H]3CO3)c3ccccc23)NC1=O (cyclo(A[NMeL]L[Gly(E-crotyl)][Trp(1-CMe2(2S-oxiranyl))][NMeL][Tyr(3-NO2)])) | 0.2 | 4 to 10 (≈ 4.11 to 10.3 µg/mL) | 1.7 | 0.54 | – | –
C/C=C/C[C@@H]1NC(=O)[C@H](CC(C)C)NC(=O)[C@H](CC(C)C)N(C)C(=O)[C@H](C)NC(=O)[C@H](Cc2ccc(O)c([N+](=O)[O-])c2)NC(=O)[C@H](CC(C)C)N(C)C(=O)[C@H](Cc2cn(C(C)(C)[C@H](O)CCl)c3ccccc23)NC1=O (cyclo(A[NMeL]L[Gly(E-crotyl)][X3][NMeL][Tyr(3-NO2)])) | – | 4 to 10 (≈ 4.26 to 10.6 µg/mL) | 1.5 | 1.5 | – | –
C/C=C/C[C@@H]1NC(=O)[C@H](CC(C)C)NC(=O)[C@H](C[C@@H](C)CO)N(C)C(=O)[C@H](C)NC(=O)[C@H](Cc2ccc(O)c([N+](=O)[O-])c2)NC(=O)[C@H](CC(C)C)N(C)C(=O)[C@H](Cc2cn(C(C)(C)[C@H]3CO3)c3ccccc23)NC1=O (cyclo(A[NMeLeu(5-OH,4R)]L[Gly(E-crotyl)][Trp(1-CMe2(2S-oxiranyl))][NMeL][Tyr(3-NO2)])) | 0.44 | 4 to 10 (≈ 4.18 to 10.4 µg/mL) | 1.6 | 1.3 | – | –
C/C=C/C[C@@H]1NC(=O)[C@H](CC(C)C)NC(=O)[C@H](CC(C)C(OC)OC)N(C)C(=O)[C@H](C)NC(=O)[C@H](Cc2ccc(O)c([N+](=O)[O-])c2)NC(=O)[C@H](CC(C)C)N(C)C(=O)[C@H](Cc2cn(C(C)(C)[C@H]3CO3)c3ccccc23)NC1=O (stereo partly drawn) (cyclo(A[X1]L[Gly(E-crotyl)][Trp(1-CMe2(2S-oxiranyl))][NMeL][Tyr(3-NO2)])) | 0.11 | 4 to 10 (≈ 4.35 to 10.9 µg/mL) | 0.31 | 0.45 | – | –
C=CC(C)(C)n1cc(C[C@@H]2NC(=O)[C@H](C/C=C/C)NC(=O)[C@H](CC(C)C)NC(=O)[C@H](C[C@H](C)CO)N(C)C(=O)[C@H](C)NC(=O)[C@H](Cc3ccc(O)c([N+](=O)[O-])c3)NC(=O)[C@H](CC(C)C)N(C)C2=O)c2ccccc21 (cyclo(A[X2]L[Gly(E-crotyl)][Trp(1-(1,1-Me2-allyl))][NMeL][Tyr(3-NO2)])) | 0.84 | 4 to 10 (≈ 4.11 to 10.3 µg/mL) | 1.1 | 1.1 | – | –
C/C=C/C[C@@H]1NC(=O)[C@H](CC(C)C)NC(=O)[C@H](C[C@H](C)CO)N(C)C(=O)[C@H](C)NC(=O)[C@H](Cc2ccc(O)c([N+](=O)[O-])c2)NC(=O)[C@H](CC(C)C)N(C)C(=O)[C@H](Cc2cn(C(C)(C)[C@H]3CO3)c3ccccc23)NC1=O (cyclo(A[X2]L[Gly(E-crotyl)][Trp(1-CMe2(2S-oxiranyl))][NMeL][Tyr(3-NO2)])) | 0.25 | 4 to 10 (≈ 4.18 to 10.4 µg/mL) | 0.62 | 0.5 | – | –
NNC(=O)c1ccncc1 [ISONIAZID] | 0.46 | – | – | – | > 8 | > 50
CO[C@H]1/C=C/O[C@@]2(C)Oc3c(C)c(O)c4c(O)c(c(/C=N/N5CCN(C)CC5)c(O)c4c3C2=O)NC(=O)/C(C)=C\C=C\[C@H](C)[C@H](O)[C@@H](C)[C@@H](O)[C@@H](C)[C@H](OC(C)=O)[C@@H]1C [RIFAMPIN] | 0.03 | – | – | – | > 4 | > 122
